The results in this text go back to patent publication US12636298B2, “Composition with L-theanine and fructooligosaccharides for human memory enhancement” (HARKE Pharma GmbH, priority 2019, dated 2026).

For one experiment, the system named is KumMing (KM) mice. Briefly: Passive avoidance test (embodiment 1). Format: in vivo, mouse. An excerpt:
The Passive Avoidance Test (Solomon and Wynne, 1954; Solomon and Turner, 1960) is a fear-aggravated task employed to evaluate learning and memory in rodent models. In this test, subjects learn to avoid an environment in which an aversive stimulus (such as a foot-shock) was previously delivered. The test chamber is divided into a light compartment and a dark compartment, with a gate between the two. Animals are allowed to explore both compartments on the first day. On the following day, they are given a mild foot shock in one of the compartments. Animals will learn to associate certain properties of the chamber with the foot shock. In order to test their learning and memory, the mice are then placed back in the compartment where no shock was delivered. Mice with normal learning and memory will avoid entering the chamber where they had previously been exposed to the shock. This is measured by recording the latency to cross through the gate between the compartments. “Learning” is the period where mice were trained in this test (Table 1 and 2). Mice were tested at 24 or 48 hours after learning and the results were recorded (“Test column” in Table 1 and 2). “Fade” indicates re-testing of mice 5 days after learning (“Fade column” Table 1 and 2). Error percentage indicates the percentage of mice that have been shocked during the test. Our research was undertaken with KumMing (KM) mice (Dai et al. 2012; Ma et al. 2013). In each test, 48 KM mice were separated into 4 groups, 12 mice per group. A negative-control group was also included in the test and mock treated. […] We subsequently, tested different doses of embodiment 1, 0.1, 0.2 or 0.3 g/kg of mouse body weight (bw) of embodiment 1, consisting of a combination of fructooligoscharide and L-theanine, in the passive avoidance test.

Experiment [1] has as its system mice. Briefly: Step-down passive avoidance test (MT-01 vs FOS and L-theanine). Type of experiment: in vivo. Particulars: for Error count during testing phase: MT-01 both, control 2.33; for latency during the retention phase (FIG. 1c): comparison between groups. From the text:
(§1) Furthermore, to test the hypothesis that administration of M. officinalis FOS and L-theanine in a ratio of about 2:1 L-theanine:FOS synergistically enhance mice memory, we have performed a step-down passive avoidance test and a water maze test. This was employed to assess the effect of M. officinalis FOS and L-theanine individually on mice memory compared to their collective effect when administrated in combination in a ratio of about 2:1 L-theanine:FOS (MT-01) (FIG. 1).
We analysed the synergy between FOS and L-theanine in the formulation by calculating the coefficient of drug interaction (CDI), as shown in Table 1.

Experiment [2] has as its system mice. The experiment is described as follows: Water maze test (MT-01 vs FOS and L-theanine). Type of experiment: in vivo. The conditions noted are these: for Error count during testing phase: MT-01 both, control 4.11. How it is done:
as §1, with “1). Maze test was performed to further confirm the hypothesis. […] We analysed the synergy between FOS and L-theanine in the formulation by calculating the coefficient of drug interaction (CDI), as shown in Table 1.” for “1).”

Where [3] appears, read: doses g/kg·bw: Embodiment 1 0.01, L-Theanine 0.0067, Fructooligosaccharide 0.0033, 24 or 48 hours after learning.
The mark [4] stands for this setting: doses g/kg·bw: Embodiment 1 0.01, L-Theanine 0.0067, Fructooligosaccharide 0.0033, 5 days after learning.
The mark [5] stands for this setting: doses g/kg·bw: Embodiment 1 0.01, L-Theanine 0.0067, Fructooligosaccharide 0.0033, training period.
The mark [6] stands for this setting: Low dose: L-theanine 66, FOS 33 mg/kg·bw.
[7] abbreviates: Medium dose: L-theanine 134, FOS 66 mg/kg·bw.

In the case of `CCNC(=O)CC[C@H](N)C(=O)O` [L-theanine], in the experiment with KumMing (KM) mice (Table 1 doses, vs control), the “impact on rodent memory in the mouse passive avoidance test” value is given as “neither fructooligoscharide nor L-theanine alone have a positive impact on rodent memory”. Besides, in the experiment with KumMing (KM) mice (setting [3]), the “Test Error Count” value is reported as 1.22 ± 1.14. In addition, the “Test Incubation period” value in the experiment with KumMing (KM) mice (setting [3]) is 232.13 ± 70.71 s. For the same molecule, the “Fade Error Count” value with KumMing (KM) mice (setting [4]) is 1.40 ± 1.07. Moreover, the “Fade Incubation period” value in the experiment with KumMing (KM) mice (setting [4]) was 267.80 ± 51.03 s. Besides, the “Learning Error Count” value in the experiment on KumMing (KM) mice (setting [5]) was 3.90 ± 1.52. Moreover, in the experiment with KumMing (KM) mice (setting [5]), the “Learning Incubation period” value is 48.30 ± 10.71 s. In addition, the “Error count during testing phase” value in the experiment with mice [1] (setting [6]) worked out at 0.83; in the experiment on mice [1] (setting [7]) it was 1.00; in the experiment with mice [2] (High dose: L-theanine 200, FOS 100 mg/kg·bw) it was 2.41; in the experiment on mice [2] (setting [6]), 2.45; in the experiment on mice [2] (setting [7]) it was 2.95. Besides, the “latency during the retention phase (FIG. 1c)” value was “higher latency” in the experiment with mice [1] (high dose) and “neither the FOS-only nor L-theanine-only group show any significant difference” in the experiment on mice [1] (low dose). The “time to escape during the test (FIG. 1a)” value with mice [2] (all doses, compared to control group, p<0.05) is listed as “significantly (p<0.05) less time to escape”. Besides, the “escape time during test” value with mice [2] (medium and high dose, between MT-01, L-theanine and FOS) is on record as “no significant differences”.
